Values after ≈ are worked out from the molar mass of the structure shown. Counter-ions that a name gives are not always drawn. Like-named read-outs stand apart in the source and are kept apart here.
What was measured:
Brucella melitensis A488 = experiment: microbe, parasite or virus in culture; assay type: cell-based; settings: A488, 24 h
[1] = system: Staphylococcus aureus A55; experiment: MIC, agar serial dilution test; assay type: cell-based
[2] = system: Staphylococcus aureus L160a (penicillinase-producing); experiment: MIC, agar serial dilution test; settings: 24 h
[3] = system: Diplococcus pneumoniae L 54; experiment: MIC, agar serial dilution test; assay type: cell-based; settings: Streptococcus pneumoniae
[4] = system: Klebsiella pneumoniae A809; experiment: MIC, agar serial dilution test; assay type: cell-based
[5] = system: Pasteurella multocida A723; experiment: MIC, agar serial dilution test; assay type: cell-based
[6] = system: Bacillus subtilis ATCC 6633; experiment: MIC, agar serial dilution test; assay type: cell-based
[7] = system: Staphylococcus aureus A355 (penicillinase-producing); experiment: MIC, agar serial dilution test; settings: 24 h
[8] = system: Streptococcus haemolyticus A266; experiment: MIC, agar serial dilution test; assay type: cell-based
[9] = system: Streptococcus faecalis L 80; experiment: MIC, agar serial dilution test; assay type: cell-based; settings: Enterococcus faecalis
[10] = system: Staphylococcus aureus A321; experiment: MIC, agar serial dilution test; assay type: cell-based
[11] = Staphylococcus aureus A55, 24 hours at 37° C, read-out: MIC
[12] = L54, Diplococcus pneumoniae L 54, 24 hours at 37° C, read-out: MIC
[13] = Klebsiella pneumoniae A809, 24 hours at 37° C, read-out: MIC
[14] = Pasteurella multocida A723, 24 hours at 37° C, read-out: MIC
[15] = ATCC6633, Bacillus subtilis ATCC 6633, 24 hours at 37° C, read-out: MIC
[16] = Streptococcus haemolyticus A266, 24 hours at 37° C, read-out: MIC
[17] = L80, Streptococcus faecalis L 80, 24 hours at 37° C, read-out: MIC
[18] = Staphylococcus aureus A321, 24 hours at 37° C, read-out: MIC
[19] = Staphylococcus aureus, A55, 24 h
[20] = Klebsiella pneumoniae, A809, 24 h
[21] = Pasteurella multocida, A723, 24 h
[22] = Bacillus subtilis, ATCC6633, 24 h
[23] = Staphylococcus aureus, A321, 24 h

CC1(C)SC2C(NC(=O)Cc3onc(-c4c(Cl)cccc4Cl)c3C(N)=O)C(=O)N2C1C(=O)O (stereo not drawn) [XIV, 6-{[3-(2,6-dichloro)phenyl-4-carbamyl-isoxazol-5-yl]acetamido} penicillanic acid]
MIC (Brucella melitensis A488): 50 µg/mL (≈ 97.4 µM)
MIC [1, 11]: 12.5 µg/mL (≈ 24.3 µM)
MIC [2]: > 100 µg/mL
MIC [3, 12]: 6 µg/mL (≈ 11.7 µM)
MIC [4, 13]: > 100 µg/mL
MIC [5, 14]: 50 µg/mL (≈ 97.4 µM)
MIC [6, 15]: 3 µg/mL (≈ 5.84 µM)
MIC [7]: > 100 µg/mL
MIC [8, 16]: 1.5 µg/mL (≈ 2.92 µM)
MIC [9, 17]: 50 µg/mL (≈ 97.4 µM)
MIC [10, 18]: 12.5 µg/mL (≈ 24.3 µM)

CC1(C)SC2C(NC(=O)Cc3cc(-c4ccc([N+](=O)[O-])cc4)no3)C(=O)N2C1C(=O)O (stereo not drawn) [XIX, Sodium salt of 6-{[3-p-nitrophenyl-isoxazol-5-yl]acetamido}penicillanic acid]
MIC (Brucella melitensis A488): 0.12 µg/mL
MIC [1, 11]: 0.03 µg/mL
MIC [2]: 3 µg/mL
MIC [3, 12]: 0.03 µg/mL
MIC [4, 13]: 100 µg/mL
MIC [5, 14]: 1 µg/mL
MIC [6, 15]: < 0.015 µg/mL
MIC [7]: 1 µg/mL
MIC [8, 16]: 1.5 µg/mL
MIC [9, 17]: 1 µg/mL
MIC [10, 18]: 0.03 µg/mL

CC(=O)OCC1=C(C(=O)[O-])N2C(=O)C(NC(=O)Cc3onc(C)c3Cl)[C@H]2SC1.[Na+] (stereo partly drawn) [XXXV, Sodium 7{[3-methyl-4-chloroisoxazole-5 yl]acetamido}-3-acetoxymethyl-3-cephem-4carboxylate]
MIC (Brucella melitensis A488): 0.06 µg/mL
MIC [1, 19]: 0.25 µg/mL
MIC [2]: 0.5 µg/mL
MIC ([3]; L54, 24 h): 1 µg/mL
MIC [4, 20]: 1.5 µg/mL
MIC [5, 21]: 0.75 µg/mL
MIC [6, 22]: 0.06 µg/mL
MIC [7]: 0.5 µg/mL
MIC ([8]; Streptococcus, A266, 24 h): 0.06 µg/mL
MIC ([9]; L80, 24 h): 25 µg/mL
MIC [10, 23]: 0.25 µg/mL

CC1=C(C(=O)O)N2C(=O)[C@@H](NC(=O)[C@H](N)c3ccccc3)[C@H]2SC1 [Cephalexine, Cephalexin, reference compound]
MIC (Brucella melitensis A488): 6 µg/mL (≈ 17.3 µM)
MIC [1, 19]: 3 µg/mL (≈ 8.64 µM)
MIC [2]: 12.5 µg/mL (≈ 36 µM)
MIC ([3]; L54, 24 h): 3 µg/mL (≈ 8.64 µM)
MIC [4, 20]: 3 µg/mL (≈ 8.64 µM)
MIC [5, 21]: 3 µg/mL (≈ 8.64 µM)
MIC [6, 22]: 0.5 µg/mL (≈ 1.44 µM)
MIC [7]: 12.5 µg/mL (≈ 36 µM)
MIC ([8]; Streptococcus, A266, 24 h): 0.25 µg/mL (≈ 0.72 µM)
MIC ([9]; L80, 24 h): 100 µg/mL (≈ 288 µM)
MIC [10, 23]: 1.5 µg/mL (≈ 4.32 µM)

CC1(C)SC2C(NC(=O)Cc3onc(-c4c(Cl)cccc4Cl)c3C#N)C(=O)N2C1C(=O)O (stereo not drawn) [Example XV, Sodium salt of 6-{[3-(2,6-dichloro)phenyl-4-cyano-isoxazol-5-yl]acetamido}penicillanic acid]
MIC (Brucella melitensis A488): 6 µg/mL
MIC [1, 11]: 0.5 µg/mL
MIC [2]: 12.5 µg/mL
MIC [3, 12]: 0.03 µg/mL
MIC [4, 13]: > 100 µg/mL
MIC [5, 14]: 12.5 µg/mL
MIC [6, 15]: 0.25 µg/mL
MIC [7]: 12.5 µg/mL
MIC [8, 16]: 0.06 µg/mL
MIC [9, 17]: 0.5 µg/mL
MIC [10, 18]: 1 µg/mL

CC1(C)SC2C(NC(=O)Cc3cc(C45CC6CC(CC(C6)C4)C5)no3)C(=O)N2C1C(=O)O (stereo not drawn) [Example XVI, Sodium salt of 6-{[3-(1)adamantyl-isoxazol-5-yl]acetamido} penicillanic acid]
MIC (Brucella melitensis A488): 3 µg/mL
MIC [1, 11]: 0.5 µg/mL
MIC [2]: 12.5 µg/mL
MIC [3, 12]: 0.06 µg/mL
MIC [4, 13]: > 100 µg/mL
MIC [5, 14]: 6 µg/mL
MIC [6, 15]: 0.03 µg/mL
MIC [7]: 12.5 µg/mL
MIC [8, 16]: < 0.015 µg/mL
MIC [9, 17]: 0.25 µg/mL
MIC [10, 18]: 0.03 µg/mL

CC(=O)OCC1=C(C(=O)O)N2C(=O)C(NC(=O)Cc3onc(-c4c(C)cc(C)cc4C)c3C)C2SC1 (stereo not drawn) [XII, Sodium salt of 7-{[3-(2,4,6-trimethyl)phenyl-4-methyl-isoxazol-5-yl]acetamido}cephalosporanic acid]
MIC (Brucella melitensis A488): 50 µg/mL
MIC [1, 11]: 0.25 µg/mL
MIC [2]: 0.25 µg/mL
MIC [3, 12]: 0.06 µg/mL
MIC [4, 13]: > 100 µg/mL
MIC [5, 14]: 100 µg/mL
MIC [6, 15]: 0.06 µg/mL
MIC [7]: 0.25 µg/mL
MIC [8, 16]: 0.06 µg/mL
MIC [9, 17]: 6 µg/mL
MIC [10, 18]: 0.12 µg/mL

Cc1cc(C)c(-c2cc(CC(=O)NC3C(=O)N4C3SC(C)(C)C4C(=O)O)on2)c(C)c1 (stereo not drawn) [VI, Sodium salt of 6-{[3-(2,4,6-trimethyl)phenylisoxazol-5-yl]acetamido}penicillanic acid]
MIC (Brucella melitensis A488): 3 µg/mL
MIC [1, 11]: 0.06 µg/mL
MIC [2]: 0.5 µg/mL
MIC [3, 12]: 0.03 µg/mL
MIC [4, 13]: 100 µg/mL
MIC [5, 14]: 12.5 µg/mL
MIC [6, 15]: 0.03 µg/mL
MIC [7]: 3 µg/mL
MIC [8, 16]: 0.012 µg/mL
MIC [9, 17]: 0.25 µg/mL
MIC [10, 18]: 0.06 µg/mL

CC1(C)SC2C(NC(=O)C(N)c3cc(-c4c(Cl)cccc4Cl)no3)C(=O)N2C1C(=O)O (stereo not drawn) [Example XVIII, 6-{α-amino-[3-(2,6-dichloro)phenyl-isoxazol-5-yl]acetamido} penicillanic acid]
MIC (Brucella melitensis A488): 0.5 µg/mL (≈ 1.03 µM)
MIC [1, 11]: 0.25 µg/mL (≈ 0.515 µM)
MIC [2]: 12.5 µg/mL (≈ 25.8 µM)
MIC [3, 12]: 0.12 µg/mL (≈ 0.247 µM)
MIC [4, 13]: > 100 µg/mL
MIC [5, 14]: 6 µg/mL (≈ 12.4 µM)
MIC [6, 15]: 0.06 µg/mL (≈ 0.124 µM)
MIC [7]: 12.5 µg/mL (≈ 25.8 µM)
MIC [8, 16]: < 0.015 µg/mL
MIC [9, 17]: 1 µg/mL (≈ 2.06 µM)
MIC [10, 18]: 0.12 µg/mL (≈ 0.247 µM)

From patent US4010264A, “7-[3-Substituted isoxazol-5-yl]-acetamido-cephalosporanic acids and their anti-bacterial use” (Koninklijke Nederlandsche Gist-en Spiritusfabriek N.V., priority 1970, dated 1977)
